Reference: the CheMixHub viscosity set

Experiment: xn = mol fraction of the nth substance listed

ClC(Cl)(Cl)Cl + CCC(C)O
viscosity [mPa·s], 101 kPa
Conditions | 298.15 K | 308.15 K | 318.15 K
x2 = 0.0864 | 0.89 | 0.779 | 0.679
x2 = 0.1674 | 0.934 | 0.807 | 0.686
x2 = 0.2076 | 0.91 | 0.801 | 0.695
x2 = 0.2585 | 0.94 | 0.819 | 0.701
x2 = 0.3003 | 0.954 | 0.825 | 0.713
x2 = 0.3969 | 1.053 | 0.862 | 0.731
x2 = 0.5009 | 1.163 | 0.938 | 0.783
x2 = 0.5957 | 1.335 | 1.039 | 0.86
x2 = 0.6933 | 1.545 | 1.183 | 0.942
x2 = 0.7903 | 1.863 | 1.378 | 1.087
x2 = 0.9054 | 2.429 | 1.746 | 1.287

CCCOC(C)=O + CCCCCCCCCC
298.15 K, 101.33 kPa
Conditions | viscosity [mPa·s]
x2 = 0.0879 | 0.565
x2 = 0.1221 | 0.571
x2 = 0.1602 | 0.578
x2 = 0.2376 | 0.591
x2 = 0.3166 | 0.606
x2 = 0.3821 | 0.62
x2 = 0.4847 | 0.644
x2 = 0.6012 | 0.678
x2 = 0.715 | 0.718
x2 = 0.8476 | 0.776
x2 = 0.9258 | 0.817

CCN(CC)CC + CCCCCCC
303.15 K, 101 kPa
Conditions | viscosity [mPa·s]
x1 = 0.00966 | 0.3735
x1 = 0.01875 | 0.3719
x1 = 0.02995 | 0.3707
x1 = 0.0422 | 0.3687
x1 = 0.04845 | 0.3675
x1 = 0.05931 | 0.3663
x1 = 0.07022 | 0.365
x1 = 0.07742 | 0.3639
x1 = 0.08877 | 0.363
x1 = 0.09882 | 0.3622

CCCOC(C)=O + O=S1(=O)CCCC1
101 kPa
Conditions | viscosity [mPa·s]
303.15 K, x1 = 0.0177 | 9.305
308.15 K, x2 = 0.6489 | 2.375
313.15 K, x2 = 0.7639 | 3.185

ClC(Cl)(Cl)Cl + CCCCCO
viscosity [mPa·s], 101 kPa
Conditions | x2 = 0.0207 | x2 = 0.0826 | x2 = 0.3114 | x2 = 0.4575 | x2 = 0.5771 | x2 = 0.8017
298.15 K | 0.912 | 0.971 | 1.306 | 1.62 | 1.884 | 2.761
308.15 K | 0.798 | 0.84 | 1.03 | 1.241 | 1.488 | 2.103
318.15 K | 0.708 | 0.741 | 0.886 | 1.037 | 1.199 | 1.647
